Measured values reported in publication PMC7819857, “Identification of Inhibitors of Integrin Cytoplasmic Domain Interactions With Syk” (Frontiers in Immunology, 2021).

Legend:
[1] = test system: MCP-1 gene expression in THP-1 cells; assay: Quantitative PCR of adhesion-dependent MCP-1 expression in THP-1 cells; format: cell-based, human; details: 100 µM loaded cells, plated on CS-1, 4 h, qPCR
Description: THP-1 cells (2 × 10^6 per treatment group) that were glycerol loaded with ceftazidime (100 µM) or vehicle control (as described above) were plated on CS-1 peptide (10 µg/ml; 6-well plates) in serum-free RPMI-1640. Control cells were also kept in suspension. Plated and suspension cells were incubated for 4 h at 37°C. After incubation, the medium was removed, and RNA was isolated from cells with a Qiagen RNA extraction kit. After cDNA synthesis, quantitative real-time PCR was used to determine the relative gene expression levels of IL-1β and monocyte chemoattractant protein (MCP)-1 in THP-1 cells adhered to CS-1 in the presence of vehicle or ceftazidime relative to that of cells in suspension. The cycle threshold (Ct) results generated were analyzed according to the comparative Ct method (2^-ΔΔCt), where ΔCt is the difference between the CT value of target versus GAPDH control, and ΔΔCt is the difference between the ΔCt values of a given treated adherent cell sample and that of cells in suspension. Statistical differences between the two treatment groups for each target were determined by a two-tailed, unpaired Student t test using GraphPad Prism 7.04 statistical software.
Figure 6 Selective inhibition of integrin signaling by ceftazidime. […] Data are expressed as mean ± range from duplicate determinations. […] Kinase activity is expressed as percent of maximum signal. […]

[2] = biological target: T1, wild-type full-length Syk : integrin β3 cytoplasmic domain (Homo sapiens, UniProt P43405); assay: Peptide affinity pull-down of Syk from THP-1 whole cell lysate on β3 peptide beads; format: binding; details: bβ3(fl) on neutravidin agarose beads, western blot
T1 construct: endogenous in cells; host or cells: THP-1 whole cell lysate
Description: THP-1 cells were washed in PIPES buffer (10 mM PIPES, 50 mM NaCl pH 6.8) and resuspended at 10 × 10^6 cells/ml in PIPES lysis buffer [PIPES buffer containing 1% Triton X-100, 1 mM EDTA, 1 mM Na3VO4, 50 mM NaF, 150 mM sucrose, protease inhibitors (cOmplete, Mini, EDTA-free Protease Inhibitor Cocktail, Roche, cat#11836170001)] and 0.1 mM N-ethylmaleimide. The cells were incubated overnight in lysis buffer at 4°C with end-over-end rotation. Lysates were then passed through a 21-gauge needle and centrifuged at 13,000 × g for 30 min at 4°C. Lysate protein concentrations were determined by using Quick Start Bradford Dye reagent (BioRad cat#5000202). […] Eluted samples were run on SDS-PAGE (4–20%, BioRad, cat# 4561093) and immunoblotted for Syk using anti-Syk antibody at 1:1,000 (4D10; SantaCruz) dilution followed by GAM-HRP at 1:5,000 and detected with SuperSignal West Pico (Thermo Scientific, cat# 34580). Western blots were scanned, and band intensity was measured using ImageJ ([31]) to compare and determine the effect of the drug on Syk/β3 binding. […]
Figure 3 Dose-response curves in primary and orthogonal screens. […] Data are expressed as mean fluorescence (Fl520) ± range from duplicates, and one representative experiment of “n” performed is shown. […] Data are expressed as mean abs450 ± SEM from triplicate determinations, and one of three representative experiments is shown. […]

[3] = biological target: T2, full-length Syk (Homo sapiens, UniProt P43405); assay: Syk kinase activity assay; format: biochemical; details: 100 uM, 100-fold higher than the AlphaScreen IC50
T2 construct: ceftazidime had no effect on the catalytic function of full-length Syk
From the text: Figure 6 Selective inhibition of integrin signaling by ceftazidime. (A) Schematic illustration of the pITAM-Syk AlphaScreen used to test antagonist selectivity. (B) Comparison between ceftazidime (Ctaz) and pITAM peptide inhibition of pITAM-Syk binding in the AlphaScreen assay described in (A). […] Data are expressed as mean ± range from duplicate determinations. One of four representative assays is shown. (C) Effect of ceftazidime on Syk kinase activity. Ceftazidime (Ctaz) or Syk inhibitor P505-15 was used at 100 uM. Kinase activity is expressed as percent of maximum signal. Data are expressed as mean ± SEM (n = 3). **p < 0.01 (D) Selective effects of ceftazidime on integrin signaling. […] Phosphorylation of Syk (left and right panel) and Pyk-2 (center panel) was analyzed by immunoprecipitation and western blot. […] Quantification is shown below (left panel, n = 5; center panel, n = 3; right panel, n = 3), normalized to phosphorylation in suspension. Results are expressed as the mean ± SEM. […] Expression of interleukin (IL)-1β and monocyte chemoattractant protein (MCP)-1 genes was examined by quantitative real-time polymerase chain reaction. Data are expressed as expression levels relative to control cells kept in suspension. […] P-values were calculated by the Student t test. […]

inhibition of wild-type Syk interaction with integrin β3 cytoplasmic domains [2]: inhibited
effect on the catalytic function of full-length Syk [3]: no effect
SMILES: CC(C)(O/N=C(\C(=O)N[C@@H]1C(=O)N2C(C(=O)[O-])=C(C[n+]3ccccc3)CS[C@H]12)c1csc(N)n1)C(=O)O [ceftazidime]
adhesion-dependent induction of the expression of MCP-1 [1]: significantly inhibited
